This is an account of results in patent US20230093099A1, “COMPOUNDS AND METHODS OF TREATING CANCERS” (CULLGEN (SHANGHAI), INC., priority 2019, published 2023).

The test system of this assay is RS4;11 cells. In words: Cell viability assay (CellTiter-Glo) in RS4;11 cells. In kind it is cell-based. Conditions: Homo sapiens, 72 h; RS4;11 cells; cell viability, 3 days, CellTiter-Glo; read-out: IC50. As for the experimental part: Specific exemplary heterobifunctional compounds were first characterized using cell viability assays. RS4;11 ALL cells were treated with bifunctional degraders for three days. The IC50 values ranged from 2 nM to over 10 uM.
MV4;11, RS4;11, Kasumi-1, HEL and other cells were treated with NVP-BSK805, TG101209 or selected degraders for 3 days at indicated concentrations following a 3-fold serial dilution.
HEL, RS4;11, MV4;11, Kasumi-1 and other cells were cultured at 37° C. with 5% CO2 in RPMI 1640 or DMEM Medium supplemented with 10% fetal bovine serum. Cells were authenticated using the short tandem repeat (STR) assays. Mycoplasma test results were negative.
Cells were seeded at a density of 5000 cells per well in 96-well assay plates and treated with test compounds following a 8-point or 12-point 3-fold serial dilution. Three days later, cell viability was determined using the CellTiter-Glo assay kit according to the manufacturer's instructions. The dose-response curves were determined and IC50 values were calculated using the GraphPad Prism software following a nonlinear regression (least squares fit) method.
`Cc1cnc(Nc2ccc(N3CCN(CC(=O)NCCOCCOCCOCCOCCC(=O)NC(C(=O)N4C[C@H](O)C[C@H]4C(=O)NCc4ccc(-c5scnc5C)cc4)C(C)(C)C)CC3)cc2)nc1Nc1cccc(S(=O)(=O)NC(C)(C)C)c1` (stereo in doubt) [JA-222, (2S,4R)-1-((S)-20-(tert-butyl)-1-(4-(4-((4-((3-(N-(tert-butyl)sulfamoyl)phenyl)amino)-5-methylpyrimidin-2-yl)amino)phenyl)piperazin-1-yl)-2,18-dioxo-6,9,12,15-tetraoxa-3,19-diazahenicosan-21-oyl)-4-hydroxy-N-(4-(4-methylthiazol-5-yl)benzyl)pyrrolidine-2-carboxamide]: the IC50 was above 10 µM. Consider `O=C1CCC(N2C(=O)c3cccc(NCCCCCC(=O)N4CCC(n5cc(-c6cnc7cccc(-c8cc(F)c(CN9CCOCC9)c(F)c8)c7n6)cn5)CC4)c3C2=O)C(=O)N1` (stereo not shown) [JA-001, 4-[[6-[4-[4-[8-[3,5-Difluoro-4-(morpholinomethyl)phenyl]quinoxalin-2-yl]pyrazol-1-yl]-1-piperidyl]-6-oxo-hexyl]amino]-2-(2,6-dioxo-3-piperidyl)isoindoline-1,3-dione], for which the IC50 came to 3.17 µM.

Take `O=C1CCC(N2C(=O)c3cccc(NCC(=O)N4CCC(n5cc(-c6cnc7cccc(-c8cc(F)c(CN9CCOCC9)c(F)c8)c7n6)cn5)CC4)c3C2=O)C(=O)N1` (stereo not shown) [JA-002, 4-[[2-[4-[4-[8-[3,5-Difluoro-4-(morpholinomethyl)phenyl]quinoxalin-2-yl]pyrazol-1-yl]-1-piperidyl]-2-oxo-ethyl]amino]-2-(2,6-dioxo-3-piperidyl)isoindoline-1,3-dione]: the IC50 worked out at 5.44 µM. Then `O=C1CCC(N2C(=O)c3cccc(NCCCCC(=O)N4CCC(n5cc(-c6cnc7cccc(-c8cc(F)c(CN9CCOCC9)c(F)c8)c7n6)cn5)CC4)c3C2=O)C(=O)N1` (stereo not shown) [JA-003, 4-[[5-[4-[4-[8-[3,5-Difluoro-4-(morpholinomethyl)phenyl]quinoxalin-2-yl]pyrazol-1-yl]-1-piperidyl]-5-oxo-pentyl]amino]-2-(2,6-dioxo-3-piperidyl)isoindoline-1,3-dione], with 6.59 µM; and `O=C1CCC(N2C(=O)c3cccc(NCCC(=O)N4CCC(n5cc(-c6cnc7cccc(-c8cc(F)c(CN9CCOCC9)c(F)c8)c7n6)cn5)CC4)c3C2=O)C(=O)N1` (stereo not shown) [JA-004, 4-[[3-[4-[4-[8-[3,5-Difluoro-4-(morpholinomethyl)phenyl]quinoxalin-2-yl]pyrazol-1-yl]-1-piperidyl]-3-oxo-propyl]amino]-2-(2,6-dioxo-3-piperidyl)isoindoline-1,3-dione], with 3.35 µM; and `O=C1CCC(N2C(=O)c3cccc(NCCCC(=O)N4CCC(n5cc(-c6cnc7cccc(-c8cc(F)c(CN9CCOCC9)c(F)c8)c7n6)cn5)CC4)c3C2=O)C(=O)N1` (stereo not shown) [JA-005, 4-[[4-[4-[4-[8-[3,5-Difluoro-4-(morpholinomethyl)phenyl]quinoxalin-2-yl]pyrazol-1-yl]-1-piperidyl]-4-oxo-butyl]amino]-2-(2,6-dioxo-3-piperidyl)isoindoline-1,3-dione], with 0.51 µM. `Cc1cnc(Nc2ccc(N3CCN(C(=O)CNc4cccc5c4C(=O)N(C4CCC(=O)NC4=O)C5=O)CC3)cc2)nc1Nc1cccc(S(=O)(=O)NC(C)(C)C)c1` (stereo not shown) [JA-006, N-(tert-Butyl)-3-((2-((4-(4-((2-(2,6-dioxopiperidin-3-yl)-1,3-dioxoisoindolin-4-yl)glycyl)piperazin-1-yl)phenyl)amino)-5-methylpyrimidin-4-yl)amino)benzenesulfonamide]: the concentration for half-maximal inhibition (IC50) was above 10 µM.

In the case of `Cc1cnc(Nc2ccc(N3CCN(C(=O)CCCCCNc4cccc5c4C(=O)N(C4CCC(=O)NC4=O)C5=O)CC3)cc2)nc1Nc1cccc(S(=O)(=O)NC(C)(C)C)c1` (stereo not shown) [JA-007, N-(tert-Butyl)-3-((2-((4-(4-(6-((2-(2,6-dioxopiperidin-3-yl)-1,3-dioxoisoindolin-4-yl)amino)hexanoyl)piperazin-1-yl)phenyl)amino)-5-methylpyrimidin-4-yl)amino)benzenesulfonamide], the half-inhibitory concentration (IC50) was above 10 µM. As to `Cc1cnc(Nc2ccc(N3CCN(C(=O)CCCNc4cccc5c4C(=O)N(C4CCC(=O)NC4=O)C5=O)CC3)cc2)nc1Nc1cccc(S(=O)(=O)NC(C)(C)C)c1` (stereo not shown) [JA-008, N-(tert-Butyl)-3-((2-((4-(4-(4-((2-(2,6-dioxopiperidin-3-yl)-1,3-dioxoisoindolin-4-yl)amino)butanoyl)piperazin-1-yl)phenyl)amino)-5-methylpyrimidin-4-yl)amino)benzenesulfonamide], the concentration for half-maximal inhibition (IC50) was found to be 1.47 µM. Consider `Cc1cnc(Nc2ccc(N3CCN(C(=O)CCNc4cccc5c4C(=O)N(C4CCC(=O)NC4=O)C5=O)CC3)cc2)nc1Nc1cccc(S(=O)(=O)NC(C)(C)C)c1` (stereo not shown) [JA-009, N-(tert-Butyl)-3-((2-((4-(4-(3-((2-(2,6-dioxopiperidin-3-yl)-1,3-dioxoisoindolin-4-yl)amino)propanoyl)piperazin-1-yl)phenyl)amino)-5-methylpyrimidin-4-yl)amino)benzenesulfonamide], for which the IC50 was 2.58 µM. Then `CS(=O)(=O)c1ccc(-c2cccc3nc(Nc4ccc(N5CCN(C(=O)CCCNc6cccc7c6C(=O)N(C6CCC(=O)NC6=O)C7=O)CC5)cc4)nn23)cc1` (stereo not shown) [JA-010, 2-(2,6-Dioxopiperidin-3-yl)-4-((4-(4-(4-((5-(4-(methylsulfonyl)phenyl)-[1,2,4]triazolo[1,5-a]pyridin-2-yl)amino)phenyl)piperazin-1-yl)-4-oxobutyl)amino)isoindoline-1,3-dione], with above 10 µM; and `CS(=O)(=O)c1ccc(-c2cccc3nc(Nc4ccc(N5CCN(C(=O)CCCCNc6cccc7c6C(=O)N(C6CCC(=O)NC6=O)C7=O)CC5)cc4)nn23)cc1` (stereo not shown) [JA-011, 2-(2,6-Dioxo-piperidin-3-yl)-4-[5-(4-{4-[5-(4-methanesulfonyl-phenyl)-[1,2,4]triazolo[1,5-a]pyridin-2-ylamino]-phenyl}-piperazin-1-yl)-5-oxo-pentylamino]-isoindole-1,3-dione], with 3.04 µM.

On to `CS(=O)(=O)c1ccc(-c2cccc3nc(Nc4ccc(N5CCN(C(=O)CCNc6cccc7c6C(=O)N(C6CCC(=O)NC6=O)C7=O)CC5)cc4)nn23)cc1` (stereo not shown) [JA-012, 2-(2,6-Dioxo-piperidin-3-yl)-4-[3-(4-{4-[5-(4-methanesulfonyl-phenyl)-[1,2,4]triazolo[1,5-a]pyridin-2-ylamino]-phenyl}-piperazin-1-yl)-3-oxo-propylamino]-isoindole-1,3-dione], for which the half-maximal inhibitory concentration (IC50) was 4.7 µM. Regarding `CS(=O)(=O)c1ccc(-c2cccc3nc(Nc4ccc(N5CCN(C(=O)CCCCCNc6cccc7c6C(=O)N(C6CCC(=O)NC6=O)C7=O)CC5)cc4)nn23)cc1` (stereo not shown) [JA-013, 2-(2,6-Dioxo-piperidin-3-yl)-4-[6-(4-{4-[5-(4-methanesulfonyl-phenyl)-[1,2,4]triazolo[1,5-a]pyridin-2-ylamino]-phenyl}-piperazin-1-yl)-6-oxo-hexylamino]-isoindole-1,3-dione], the IC50 is above 10 µM. Regarding `CS(=O)(=O)c1ccc(-c2cccc3nc(Nc4ccc(N5CCN(C(=O)CNc6cccc7c6C(=O)N(C6CCC(=O)NC6=O)C7=O)CC5)cc4)nn23)cc1` (stereo not shown) [JA-014, 2-(2,6-Dioxo-piperidin-3-yl)-4-[2-(4-{4-[5-(4-methanesulfonyl-phenyl)-[1,2,4]triazolo[1,5-a]pyridin-2-ylamino]-phenyl}-piperazin-1-yl)-2-oxo-ethylamino]-isoindole-1,3-dione], the IC50 is 3.34 µM.

Take `Cc1cnc(Nc2ccc(N3CCN(C(=O)CCCCCCNc4cccc5c4C(=O)N(C4CCC(=O)NC4=O)C5=O)CC3)cc2)nc1Nc1cccc(S(=O)(=O)NC(C)(C)C)c1` (stereo not shown) [JA-015, N-(tert-Butyl)-3-((2-((4-(4-(7-((2-(2,6-dioxopiperidin-3-yl)-1,3-dioxoisoindolin-4-yl)amino)heptanoyl)piperazin-1-yl)phenyl)amino)-5-methylpyrimidin-4-yl)amino)benzenesulfonamide]: the IC50 is above 10 µM. Then `Cc1cnc(Nc2ccc(N3CCN(C(=O)CCCCCCCNc4cccc5c4C(=O)N(C4CCC(=O)NC4=O)C5=O)CC3)cc2)nc1Nc1cccc(S(=O)(=O)NC(C)(C)C)c1` (stereo not shown) [JA-016, N-(tert-Butyl)-3-((2-((4-(4-(8-((2-(2,6-dioxopiperidin-3-yl)-1,3-dioxoisoindolin-4-yl)amino)octanoyl)piperazin-1-yl)phenyl)amino)-5-methylpyrimidin-4-yl)amino)benzenesulfonamide], with above 10 µM; and `Cc1cnc(Nc2ccc(N3CCN(C(=O)CCOCCNc4cccc5c4C(=O)N(C4CCC(=O)NC4=O)C5=O)CC3)cc2)nc1Nc1cccc(S(=O)(=O)NC(C)(C)C)c1` (stereo not shown) [JA-017, N-(tert-Butyl)-3-((2-((4-(4-(3-(2-((2-(2,6-dioxopiperidin-3-yl)-1,3-dioxoisoindolin-4-yl)amino)ethoxy)propanoyl)piperazin-1-yl)phenyl)amino)-5-methylpyrimidin-4-yl)amino)benzenesulfonamide], with above 10 µM; and `Cc1cnc(Nc2ccc(N3CCN(C(=O)CCOCCOCCNc4cccc5c4C(=O)N(C4CCC(=O)NC4=O)C5=O)CC3)cc2)nc1Nc1cccc(S(=O)(=O)NC(C)(C)C)c1` (stereo not shown) [JA-018, N-(tert-Butyl)-3-((2-((4-(4-(3-(2-(2-((2-(2,6-dioxopiperidin-3-yl)-1,3-dioxoisoindolin-4-yl)amino)ethoxy)ethoxy)propanoyl)piperazin-1-yl)phenyl)amino)-5-methylpyrimidin-4-yl)amino)benzenesulfonamide], with above 10 µM.
